Test results as given in ChEMBL document CHEMBL1122324, “New antihypertensive cannabinoids” (1983).

What was measured:
Details in all cases: route oral
Rattus norvegicus [1] = assay: percentage decrease in heart rate after 24 hr at a dose of 30 mg/kg administered perorally in rats.; assay type: functional
Rattus norvegicus [2] = assay: percentage decrease in heart rate after 4 hr at a dose of 30 mg/kg administered perorally in rats.; assay type: functional
Rattus norvegicus [3] = assay: percentage decrease in heart rate after 6 hr at a dose of 30 mg/kg administered perorally in rats.; assay type: functional
Rattus norvegicus [4] = assay: Percentage decrease in systolic blood pressure after 6 hr at 30 mg/kg administered perorally in rats; assay type: functional, Artery
Rattus norvegicus [5] = assay: Percentage decrease in systolic blood pressure after 4 hr at 100 mg/kg administered perorally in rats; assay type: functional, Artery
Rattus norvegicus [6] = assay: Percentage decrease in systolic blood pressure after 1 hr at 30 mg/kg administered perorally in rats; assay type: functional, Artery
Rattus norvegicus [7] = assay: percentage decrease in heart rate after 4 hr at a dose of 100 mg/kg administered perorally in rats; assay type: functional
Rattus norvegicus [8] = assay: Percentage decrease in systolic blood pressure after 4 hr at 30 mg/kg administered perorally in rats; assay type: functional, Artery
Rattus norvegicus [9] = assay: percentage decrease in heart rate after 1 hr at a dose of 30 mg/kg administered perorally in rats.; assay type: functional
Rattus norvegicus [10] = assay: Percentage decrease in systolic blood pressure after 24 hr at 30 mg/kg administered perorally in rats; assay type: functional, Artery
Rattus norvegicus [11] = assay: percentage decrease in heart rate after 1 hr at a dose of 30 mg/kg administered perorally in rats; assay type: functional
Rattus norvegicus [12] = assay: Percentage decrease in systolic blood pressure after 4 hr at 300 mg/kg administered perorally in rats; assay type: functional, Artery
Rattus norvegicus [13] = assay: percentage decrease in heart rate after 6 hr at a dose of 30 mg/kg administered perorally in rats; assay type: functional
Rattus norvegicus [14] = assay: percentage decrease in heart rate after 4 hr at a dose of 300 mg/kg administered perorally in rats; assay type: functional
Rattus norvegicus [15] = assay: percentage decrease in heart rate after 24 hr at a dose of 30 mg/kg administered perorally in rats; assay type: functional
Rattus norvegicus [16] = assay: percentage decrease in heart rate after 4 hr at a dose of 30 mg/kg administered perorally in rats; assay type: functional
Rattus norvegicus [17] = assay: Percentage decrease in systolic blood pressure after 1 hr at 10 mg/kg administered perorally in rats; assay type: functional, Artery
Rattus norvegicus [18] = assay: percentage decrease in heart rate after 24 hr at a dose of 10 mg/kg administered perorally in rats.; assay type: functional
Rattus norvegicus [19] = assay: percentage decrease in heart rate after 1 hr at a dose of 10 mg/kg administered perorally in rats.; assay type: functional
Rattus norvegicus [20] = assay: percentage decrease in heart rate after 6 hr at a dose of 10 mg/kg administered perorally in rats.; assay type: functional
Rattus norvegicus [21] = assay: Percentage decrease in systolic blood pressure after 24 hr at 10 mg/kg administered perorally in rats; assay type: functional, Artery
Rattus norvegicus [22] = assay: Percentage decrease in systolic blood pressure after 6 hr at 10 mg/kg administered perorally in rats; assay type: functional, Artery
Rattus norvegicus [23] = assay: percentage decrease in heart rate after 4 hr at a dose of 10 mg/kg administered perorally in rats.; assay type: functional
Rattus norvegicus [24] = assay: Percentage decrease in systolic blood pressure after 4 hr at 10 mg/kg administered perorally in rats; assay type: functional, Artery
Rattus norvegicus [25] = assay: Percentage decrease in systolic blood pressure (heart rate) after 4 hr at 30 mg/kg administered perorally in rats; assay type: functional, Artery

## CCCCCC(C)C(C)c1cc(O)c2c(c1)OC(C)(C)C1CCN(C(=O)CO)C=C21 (stereo not drawn)
Rattus norvegicus [1]
  Heart rate: -1%
Rattus norvegicus [2]
  Heart rate: -1%
Rattus norvegicus [3]
  Heart rate: 1%
Rattus norvegicus [4]
  Decrease in Systolic blood pressure: 1%
Rattus norvegicus [5]
  Decrease in Systolic blood pressure: 49%
Rattus norvegicus [6]
  Decrease in Systolic blood pressure: 2%
Rattus norvegicus [7]
  Heart rate: 19%
Rattus norvegicus [8]
  Decrease in Systolic blood pressure: -1%
Rattus norvegicus [9]
  Heart rate: 6%
Rattus norvegicus [10]
  Decrease in Systolic blood pressure: -1%

## CCCCCC(C)C(C)c1cc(O)c2c(c1)OC(C)(C)C1CCN(C(=O)CN)C=C21 (stereo not drawn)
Rattus norvegicus [5]
  Decrease in Systolic blood pressure: 12%
Rattus norvegicus [7]
  Heart rate: 7%

## CCCCCC(C)C(C)c1cc(O)c2c(c1)OC(C)(C)C1CCN(C(=O)CN3CCOCC3)C=C21 (stereo not drawn)
Rattus norvegicus [11]
  Heart rate: -16%
Rattus norvegicus [12]
  Decrease in Systolic blood pressure: 26%
Rattus norvegicus [13]
  Heart rate: 0%
Rattus norvegicus [14]
  Heart rate: 9%
Rattus norvegicus [4]
  Decrease in Systolic blood pressure: -1%
Rattus norvegicus [15]
  Heart rate: 14%
Rattus norvegicus [5]
  Decrease in Systolic blood pressure: 23%
Rattus norvegicus [6]
  Decrease in Systolic blood pressure: -8%
Rattus norvegicus [7]
  Heart rate: 5%
Rattus norvegicus [8]
  Decrease in Systolic blood pressure: -5%
Rattus norvegicus [16]
  Heart rate: 6%
Rattus norvegicus [10]
  Decrease in Systolic blood pressure: -6%

## CCCCCC(C)C(C)c1cc(O)c2c(c1)OC(C)(C)C1=C2CN(C(=O)CN)CC1 (stereo not drawn)
Rattus norvegicus [11]
  Heart rate: 9%
Rattus norvegicus [13]
  Heart rate: 13%
Rattus norvegicus [4]
  Decrease in Systolic blood pressure: 8%
Rattus norvegicus [15]
  Heart rate: 10%
Rattus norvegicus [6]
  Decrease in Systolic blood pressure: 12%
Rattus norvegicus [8]
  Decrease in Systolic blood pressure: 10%
Rattus norvegicus [16]
  Heart rate: -5%
Rattus norvegicus [10]
  Decrease in Systolic blood pressure: 2%

## CCCCCC(C)C(C)c1cc(O)c2c(c1)OC(C)(C)C1=C2CN(C(=O)CN2CCOCC2)CC1 (stereo not drawn)
Rattus norvegicus [1]
  Heart rate: 0%
Rattus norvegicus [2]
  Heart rate: 16%
Rattus norvegicus [17]
  Decrease in Systolic blood pressure: 4%
Rattus norvegicus [3]
  Heart rate: 20%
Rattus norvegicus [4]
  Decrease in Systolic blood pressure: 27%
Rattus norvegicus [18]
  Heart rate: 8%
Rattus norvegicus [19]
  Heart rate: -21%
Rattus norvegicus [20]
  Heart rate: 11%
Rattus norvegicus [5]
  Decrease in Systolic blood pressure: 40%
Rattus norvegicus [6]
  Decrease in Systolic blood pressure: 10%
Rattus norvegicus [7]
  Heart rate: 37%
Rattus norvegicus [8]
  Decrease in Systolic blood pressure: 18%
Rattus norvegicus [9]
  Heart rate: -2%
Rattus norvegicus [21]
  Decrease in Systolic blood pressure: 2%
Rattus norvegicus [22]
  Decrease in Systolic blood pressure: 3%
Rattus norvegicus [10]
  Decrease in Systolic blood pressure: 10%
Rattus norvegicus [23]
  Heart rate: 7%
Rattus norvegicus [24]
  Decrease in Systolic blood pressure: 8%

## CCCCCC(C)C(C)c1cc(O)c2c(c1)OC(C)(C)C1CCN(C(=O)CO)CC21 (stereo not drawn)
Rattus norvegicus [5]
  Decrease in Systolic blood pressure: 0%
Rattus norvegicus [7]
  Heart rate: 2%

## CCCCCC(C)C(C)c1cc(OC(=O)COC(C)=O)c2c(c1)OC(C)(C)C1=C2CN(C(=O)COC(C)=O)CC1 (stereo not drawn)
Rattus norvegicus [25]
  Decrease in Systolic blood pressure: 10%
